Results reported in ChEMBL document CHEMBL5143537, “Quinazoline-based hydroxamic acid derivatives as dual histone methylation and deacetylation inhibitors for potential anticancer agents” (Bioorg Med Chem, 2022).

Experiments:
[1] = target: T1, Protein deacetylase HDAC6 (Homo sapiens, UniProt Q9UBN7); assay: Inhibition of recombinant HDAC6 (unknown origin) using Ac-peptide-AMC as substrate preincubated for 15 mins followed by substrate addition and measured after 60 mins by fluorescence assay
T1 sequence (Q9UBN7 whole entry): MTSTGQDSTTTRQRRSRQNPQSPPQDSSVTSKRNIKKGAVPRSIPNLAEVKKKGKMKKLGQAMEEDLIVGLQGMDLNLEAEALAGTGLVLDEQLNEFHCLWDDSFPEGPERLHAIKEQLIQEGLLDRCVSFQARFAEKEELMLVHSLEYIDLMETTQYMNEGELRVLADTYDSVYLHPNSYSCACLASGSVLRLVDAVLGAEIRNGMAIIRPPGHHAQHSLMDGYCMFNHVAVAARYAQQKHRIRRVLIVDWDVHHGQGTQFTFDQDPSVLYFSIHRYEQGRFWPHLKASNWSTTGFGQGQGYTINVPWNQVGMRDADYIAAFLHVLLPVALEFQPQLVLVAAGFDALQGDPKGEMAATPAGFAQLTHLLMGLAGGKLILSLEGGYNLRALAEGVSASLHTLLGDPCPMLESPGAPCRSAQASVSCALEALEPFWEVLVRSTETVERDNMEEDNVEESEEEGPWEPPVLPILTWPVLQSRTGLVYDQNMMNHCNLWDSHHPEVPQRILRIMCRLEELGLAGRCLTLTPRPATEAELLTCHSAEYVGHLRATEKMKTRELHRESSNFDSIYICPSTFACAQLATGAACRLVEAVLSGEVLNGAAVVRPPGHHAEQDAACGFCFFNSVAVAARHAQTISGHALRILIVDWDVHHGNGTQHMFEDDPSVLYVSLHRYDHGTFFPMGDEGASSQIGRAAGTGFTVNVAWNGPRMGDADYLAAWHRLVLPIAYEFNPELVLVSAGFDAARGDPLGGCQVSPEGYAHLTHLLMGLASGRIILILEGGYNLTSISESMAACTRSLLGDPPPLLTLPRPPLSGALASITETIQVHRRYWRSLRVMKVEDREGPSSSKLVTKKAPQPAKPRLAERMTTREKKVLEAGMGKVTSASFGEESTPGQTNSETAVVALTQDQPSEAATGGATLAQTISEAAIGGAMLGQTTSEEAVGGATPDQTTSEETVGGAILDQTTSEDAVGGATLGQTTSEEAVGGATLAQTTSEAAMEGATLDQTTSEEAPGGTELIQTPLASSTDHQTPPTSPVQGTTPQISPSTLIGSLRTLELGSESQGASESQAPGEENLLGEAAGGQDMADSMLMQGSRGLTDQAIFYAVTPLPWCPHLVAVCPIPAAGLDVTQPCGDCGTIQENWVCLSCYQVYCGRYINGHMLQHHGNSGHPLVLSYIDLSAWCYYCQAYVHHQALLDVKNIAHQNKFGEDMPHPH

Histone deacetylase 1 = Histone deacetylase 1 (Homo sapiens, UniProt Q13547); assay: Inhibition of recombinant human HDAC1 expressed in baculovirus infection system using Ac-peptide-AMC as substrate preincubated for 15 mins followed by substrate addition and measured after 60 mins by fluorescence assay
Histone deacetylase 1, sequence (Q13547 whole entry): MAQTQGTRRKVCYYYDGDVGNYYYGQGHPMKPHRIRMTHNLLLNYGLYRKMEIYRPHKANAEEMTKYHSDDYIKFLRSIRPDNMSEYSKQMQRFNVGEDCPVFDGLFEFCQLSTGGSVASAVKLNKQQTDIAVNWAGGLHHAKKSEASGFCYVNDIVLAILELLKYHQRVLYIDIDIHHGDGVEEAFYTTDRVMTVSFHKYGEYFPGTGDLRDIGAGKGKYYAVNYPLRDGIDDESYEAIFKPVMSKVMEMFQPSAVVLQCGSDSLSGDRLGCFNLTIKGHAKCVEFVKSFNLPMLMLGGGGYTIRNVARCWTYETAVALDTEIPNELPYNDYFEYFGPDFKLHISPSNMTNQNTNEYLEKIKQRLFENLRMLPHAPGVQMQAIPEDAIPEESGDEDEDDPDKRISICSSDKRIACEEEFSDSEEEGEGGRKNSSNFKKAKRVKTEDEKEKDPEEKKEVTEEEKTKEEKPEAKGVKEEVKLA

K562 = assay: Antiproliferative activity against human K562 cells measured after 72 hrs by MTT assay; type: functional, cell-based; details: K562, 72 h
MDA-MB-231 = assay: Antiproliferative activity against human MDA-MB-231 cells measured after 72 hrs by MTT assay; type: functional, cell-based; details: MDA-MB-231, 72 h
[2] = target: T2, Histone-lysine N-methyltransferase EHMT1 (Homo sapiens, UniProt Q9H9B1); assay: Inhibition of GLP (unknown origin)
T2 sequence (Q9H9B1 whole entry): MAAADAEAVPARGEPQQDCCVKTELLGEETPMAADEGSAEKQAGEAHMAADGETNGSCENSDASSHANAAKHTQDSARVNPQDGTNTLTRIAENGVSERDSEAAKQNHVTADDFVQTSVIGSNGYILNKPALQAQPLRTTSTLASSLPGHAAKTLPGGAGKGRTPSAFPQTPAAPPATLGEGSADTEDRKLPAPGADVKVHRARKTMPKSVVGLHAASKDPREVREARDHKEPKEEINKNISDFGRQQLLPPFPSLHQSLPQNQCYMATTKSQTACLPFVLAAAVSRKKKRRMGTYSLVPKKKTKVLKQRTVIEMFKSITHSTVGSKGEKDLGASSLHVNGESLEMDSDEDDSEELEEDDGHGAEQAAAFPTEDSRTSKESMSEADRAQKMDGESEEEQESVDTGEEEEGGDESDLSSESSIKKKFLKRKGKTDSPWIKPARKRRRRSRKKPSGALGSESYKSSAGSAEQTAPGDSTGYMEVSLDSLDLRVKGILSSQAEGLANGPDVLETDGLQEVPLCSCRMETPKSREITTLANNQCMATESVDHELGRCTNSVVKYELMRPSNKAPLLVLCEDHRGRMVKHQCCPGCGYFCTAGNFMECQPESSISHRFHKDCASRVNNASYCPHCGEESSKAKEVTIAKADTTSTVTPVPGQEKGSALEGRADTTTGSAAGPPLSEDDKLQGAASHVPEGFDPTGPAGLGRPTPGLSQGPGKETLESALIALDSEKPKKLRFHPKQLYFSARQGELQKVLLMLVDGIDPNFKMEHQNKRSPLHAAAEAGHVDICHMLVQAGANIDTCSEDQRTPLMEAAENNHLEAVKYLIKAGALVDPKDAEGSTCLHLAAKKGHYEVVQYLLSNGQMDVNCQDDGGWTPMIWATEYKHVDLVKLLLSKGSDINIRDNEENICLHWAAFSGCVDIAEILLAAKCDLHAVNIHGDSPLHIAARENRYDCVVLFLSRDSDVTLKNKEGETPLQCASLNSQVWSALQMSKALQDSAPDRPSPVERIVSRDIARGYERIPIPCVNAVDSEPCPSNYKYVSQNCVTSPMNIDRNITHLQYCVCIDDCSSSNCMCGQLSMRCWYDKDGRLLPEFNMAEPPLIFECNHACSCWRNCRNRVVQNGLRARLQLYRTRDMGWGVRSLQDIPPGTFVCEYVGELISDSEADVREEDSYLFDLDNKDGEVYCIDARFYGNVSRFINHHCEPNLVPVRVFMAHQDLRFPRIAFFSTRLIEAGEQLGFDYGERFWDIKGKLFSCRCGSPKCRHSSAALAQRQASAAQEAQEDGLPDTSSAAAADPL

[3] = Cytotoxicity against human HL7702 cells measured after 72 hrs by MTT assay; details: HL7702 (L02) cells
HCT-116 = assay: Antiproliferative activity against human HCT-116 cells measured after 72 hrs by MTT assay; type: functional, cell-based; details: HCT-116, 72 h
HT-29 = assay: Antiproliferative activity against human HT-29 cells measured after 72 hrs by MTT assay; type: functional, cell-based; details: HT-29, 72 h
HepG2 = assay: Antiproliferative activity against human HepG2 cells measured after 72 hrs by MTT assay; type: functional, cell-based; details: HepG2, 72 h
HeLa = assay: Antiproliferative activity against human HeLa cells measured after 72 hrs by MTT assay; type: functional, cell-based
A-431 = assay: Antiproliferative activity against human A-431 cells measured after 72 hrs by MTT assay; type: functional, cell-based; details: A-431, 72 h
[4] = Half life in rat liver microsomes at 1 uM by LC-MS/MS analysis; type: ADME, Microsome
[5] = Intrinsic clearance in rat liver microsomes at 1 uM by LC-MS/MS analysis; type: ADME, Microsome; details: read-out: CLH

Structure (SMILES)	IC50 [1]	IC50 (Histone deacetylase 1)	IC50 (K562)	IC50 (MDA-MB-231)	IC50 [2]	IC50 at 72 h [3]	IC50 (HCT-116)	IC50 (HT-29)	IC50 (HepG2)	IC50 (HeLa)	IC50 (A-431)	half-life at 1 µM [4]	CLint scaled at 1 µM [5]
COc1cc2nc(NCCCCCC(=O)NO)nc(NC3CCN(C)CC3)c2cc1OC	0.051 µM	0.0013 µM	9.21 µM	44.2 µM	0.011 µM	31.7 µM	6.93 µM	5.31 µM	13.4 µM	6.39 µM	5.86 µM	–	–
O=C(c1ccc(F)cc1)C1CCN(CCn2c(=O)[nH]c3ccccc3c2=O)CC1 [KETANSERIN]	–	–	–	–	–	–	–	–	–	–	–	16.2 min	153 mL/min/kg
COc1cc2nc(N3CCN(CCCCCC(=O)NO)CC3)nc(NC3CCN(C(C)C)CC3)c2cc1OC	0.024 µM	0.051 µM	10.1 µM	> 50 µM	0.0016 µM	> 50 µM	> 50 µM	8 µM	12.1 µM	29.7 µM	> 50 µM	–	–
COc1cc2nc(NCCCCCCC(=O)NO)nc(NC3CCN(C)CC3)c2cc1OC	0.016 µM	0.0058 µM	17 µM	> 50 µM	0.021 µM	> 50 µM	> 50 µM	12.9 µM	6.76 µM	9.49 µM	> 50 µM	–	–
COc1cc2nc(NCCCCCC(=O)NO)nc(NC3CCN(Cc4ccccc4)CC3)c2cc1OC	0.017 µM	0.0032 µM	7.89 µM	7.89 µM	0.0092 µM	19.8 µM	44.5 µM	12.9 µM	2.13 µM	8.85 µM	16.9 µM	–	–
COc1cc2nc(NCCCCCCC(=O)NO)nc(NC3CCN(C(C)C)CC3)c2cc1OC	0.012 µM	0.0042 µM	5.21 µM	> 50 µM	0.011 µM	12.7 µM	3.75 µM	4.21 µM	4.72 µM	17.4 µM	23.1 µM	–	–
COc1cc2nc(N3CCN(Cc4ccc(/C=C/C(=O)NO)cc4)CC3)nc(NC3CCN(Cc4ccccc4)CC3)c2cc1OC	0.05 µM	0.094 µM	> 50 µM	> 50 µM	0.19 µM	> 50 µM	> 50 µM	> 50 µM	> 50 µM	> 50 µM	> 50 µM	–	–
COc1cc2c(NC3CCN(C(C)C)CC3)nc(N3CCC(F)(F)CC3)nc2cc1OCCCN1CCCC1	–	–	0.92 µM	3.23 µM	–	3.23 µM	5.01 µM	1.35 µM	2.69 µM	1.74 µM	3.38 µM	–	–
COc1cc2nc(NCCCCCC(=O)NO)nc(NC3CCN(C(C)C)CC3)c2cc1OC	0.131 µM	0.0084 µM	> 50 µM	> 50 µM	0.097 µM	> 50 µM	25.7 µM	47.4 µM	> 50 µM	37.4 µM	> 50 µM	–	–
